Laboratory results taken from PubChem BioAssay AID330 (DTP/NCI, 2004).
Values joined by “and” are separate entries in the source; they are usually repeats but may differ in a detail not shown here. Equal values may be shown once. Toxic doses and inconclusive results are not listed. The calls were made as follows: active = survival T/C of 150% or more; inactive = T/C below 125% in these data.

System: P388 leukemia ip, CD2F1 mice, survival T/C
Assay: NCI In Vivo Anticancer Drug Screen. Data for tumor model P388 Leukemia (intraperitoneal) in CD2F1 (CDF1) mice
Conditions: endpoint: median survival time, higher = longer survival
In short: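 Mice carrying the transplanted tumor received test compound or vehicle. Survival was recorded in each group, and the value is the treated-group measurement divided by that of the vehicle-treated control group.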

[1] = dose: 60.0 mg/kg/injection, schedule: Q01DX005 (ip), vehicle: saline with Tween-80
[2] = dose: 120.0 mg/kg/injection, schedule: Q01DX005 (ip), vehicle: saline with Tween-80
[3] = dose: 240.0 mg/kg/injection, schedule: Q01DX005 (ip), vehicle: saline with Tween-80

Measured: T/C

Cc1c2cc[n+](C)c(C)c2cc2c1[nH]c1ccccc12
inactive: dose: 1.56 mg/kg/injection, schedule: Q04DX002 (ip), vehicle: water 100 % of control | dose: 3.12 mg/kg/injection, schedule: Q04DX002 (ip), vehicle: water 115 % of control | dose: 6.25 mg/kg/injection, schedule: Q04DX002 (ip), vehicle: water 117 % of control | dose: 10.0 mg/kg/injection, schedule: Q04DX002 (ip), vehicle: water 115 % of control | dose: 12.5 mg/kg/injection, schedule: Q04DX002 (ip), vehicle: water 118 % of control | dose: 20.0 mg/kg/injection, schedule: Q04DX002 (ip), vehicle: water 115 % of control | dose: 25.0 mg/kg/injection, schedule: Q04DX002 (ip), vehicle: water 115 % of control | dose: 40.0 mg/kg/injection, schedule: Q04DX002 (ip), vehicle: water 115 % of control | dose: 50.0 mg/kg/injection, schedule: Q04DX002 (ip), vehicle: water 106 % of control

CC(C)NC(=O)OCc1c(COC(=O)NC(C)C)c(-c2ccc(Cl)c(Cl)c2)n2c1CS(=O)C2 (stereo not given)
inactive: dose: 12.5 mg/kg/injection, schedule: Q01DX005 (ip), vehicle: Klucel + Tween-80 99 % of control | dose: 25.0 mg/kg/injection, schedule: Q01DX005 (ip), vehicle: Klucel + Tween-80 97 % of control | dose: 50.0 mg/kg/injection, schedule: Q01DX005 (ip), vehicle: Klucel + Tween-80 92 % of control | dose: 100.0 mg/kg/injection, schedule: Q01DX005 (ip), vehicle: Klucel + Tween-80 89 % of control | dose: 200.0 mg/kg/injection, schedule: Q01DX005 (ip), vehicle: Klucel + Tween-80 104 % of control and 89 % of control

CCOC(=O)c1conc1C
inactive: dose: 12.5 mg/kg/injection, schedule: Q01DX009 (ip), vehicle: saline 112 % of control | dose: 25.0 mg/kg/injection, schedule: Q01DX009 (ip), vehicle: saline 106 % of control | dose: 50.0 mg/kg/injection, schedule: Q01DX009 (ip), vehicle: saline 101 % of control and 103 % of control

O=C1Cc2ccccc2C(=O)N1
inactive: dose: 100.0 mg/kg/injection, schedule: Q04DX003 (ip), vehicle: saline with Tween-80 100 % of control | dose: 200.0 mg/kg/injection, schedule: Q04DX003 (ip), vehicle: saline with Tween-80 95 % of control

COc1cc(CSc2ccccc2)cc(OC)c1N
inactive: dose: 50.0 mg/kg/injection, schedule: Q01DX005 (ip), vehicle: Klucel (hydroxypropylcellulose) (HPC) 95 % of control | dose: 100.0 mg/kg/injection, schedule: Q01DX005 (ip), vehicle: Klucel (hydroxypropylcellulose) (HPC) 100 % of control | dose: 200.0 mg/kg/injection, schedule: Q01DX005 (ip), vehicle: Klucel (hydroxypropylcellulose) (HPC) 99 % of control

O=S(=O)(Nc1ccccc1C(F)(F)F)c1ccc(F)cc1
inactive: [1] 99 % of control | [2] 100 % of control | [3] 95 % of control

Cc1ccc2c(c1)SP1(c3ccccc3)(Oc3c(c4ccccc4c4ccccc34)O1)S2
inactive: [1] 118 % of control | [2] 110 % of control | [3] 114 % of control

CCCCCCCCCCCCCCCCCCOCC(CO)OC (stereo not given)
inactive: dose: 50.0 mg/kg/injection, schedule: Q01DX005 (ip), vehicle: saline with Tween-80 101 % of control and 115 % of control | dose: 100.0 mg/kg/injection, schedule: Q01DX005 (ip), vehicle: saline with Tween-80 115 % of control and 123 % of control | dose: 200.0 mg/kg/injection, schedule: Q01DX005 (ip), vehicle: saline with Tween-80 123 % of control | dose: 400.0 mg/kg/injection, schedule: Q01DX005 (ip), vehicle: saline with Tween-80 97 % of control

CN(C)c1nc(NC(=O)NC(=O)c2c(F)cccc2F)nc(N(C)C)n1
inactive: dose: 6.25 mg/kg/injection, schedule: Q01DX009 (ip), vehicle: saline with Tween-80 101 % of control | dose: 12.5 mg/kg/injection, schedule: Q01DX009 (ip), vehicle: saline with Tween-80 111 % of control | dose: 25.0 mg/kg/injection, schedule: Q01DX009 (ip), vehicle: saline with Tween-80 104 % of control

O=C1SCCC1CO (stereo not given)
inactive: dose: 25.0 mg/kg/injection, schedule: Q04DX003 (ip), vehicle: saline 100 % of control | dose: 50.0 mg/kg/injection, schedule: Q04DX003 (ip), vehicle: saline 106 % of control

CCOC(=O)C1=CNN=CC12C(=O)C(C(=O)OCC)CC2C(=O)OCC (stereo not given)
inactive: dose: 100.0 mg/kg/injection, schedule: Q04DX002 (ip), vehicle: saline with Tween-80 96 % of control | dose: 200.0 mg/kg/injection, schedule: Q04DX002 (ip), vehicle: saline with Tween-80 93 % of control | dose: 400.0 mg/kg/injection, schedule: Q04DX002 (ip), vehicle: saline with Tween-80 92 % of control
